Where “and” joins values, the source holds several entries; their conditions need not be identical. Equal entries are not always repeated. Where two headings read alike, the source gives them in different places. Blank lines part the entries; values can stand above or below the molecule they belong to.
What was measured:
human OCT3 = biological target: T1, human OCT3 (Homo sapiens, UniProt O75751); experiment: Inhibition of [14C]-metformin uptake in HEK-OCT3 cells; type: cell-based; settings: for metformin uptake (remaining): OCT3-mediated, inhibitor at 10x Cmax,u
T1 sequence (O75751 1-556): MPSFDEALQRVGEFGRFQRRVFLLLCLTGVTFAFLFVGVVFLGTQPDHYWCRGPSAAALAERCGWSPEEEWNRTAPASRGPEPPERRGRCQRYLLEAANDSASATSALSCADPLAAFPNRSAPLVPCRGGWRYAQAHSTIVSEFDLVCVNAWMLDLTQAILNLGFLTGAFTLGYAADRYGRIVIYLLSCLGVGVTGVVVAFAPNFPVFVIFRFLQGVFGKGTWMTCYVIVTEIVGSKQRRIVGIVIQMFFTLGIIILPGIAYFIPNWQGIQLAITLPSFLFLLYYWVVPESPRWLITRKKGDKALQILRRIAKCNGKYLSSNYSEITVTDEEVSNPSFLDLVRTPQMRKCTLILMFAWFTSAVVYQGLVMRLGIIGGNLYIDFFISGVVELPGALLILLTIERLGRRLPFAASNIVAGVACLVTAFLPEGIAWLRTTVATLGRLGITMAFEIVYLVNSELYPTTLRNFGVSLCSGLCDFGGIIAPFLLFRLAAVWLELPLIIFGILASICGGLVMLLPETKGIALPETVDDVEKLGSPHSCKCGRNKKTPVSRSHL

human MATE1 = biological target: T2, human MATE1 (Homo sapiens, UniProt Q96FL8); experiment: Inhibition of [14C]-metformin uptake in HEK-MATE1 cells; type: cell-based; settings: for inhibition at 10 x Cmax,u: human, probe [14C]-metformin 10 µM
T2 sequence (Q96FL8 1-570): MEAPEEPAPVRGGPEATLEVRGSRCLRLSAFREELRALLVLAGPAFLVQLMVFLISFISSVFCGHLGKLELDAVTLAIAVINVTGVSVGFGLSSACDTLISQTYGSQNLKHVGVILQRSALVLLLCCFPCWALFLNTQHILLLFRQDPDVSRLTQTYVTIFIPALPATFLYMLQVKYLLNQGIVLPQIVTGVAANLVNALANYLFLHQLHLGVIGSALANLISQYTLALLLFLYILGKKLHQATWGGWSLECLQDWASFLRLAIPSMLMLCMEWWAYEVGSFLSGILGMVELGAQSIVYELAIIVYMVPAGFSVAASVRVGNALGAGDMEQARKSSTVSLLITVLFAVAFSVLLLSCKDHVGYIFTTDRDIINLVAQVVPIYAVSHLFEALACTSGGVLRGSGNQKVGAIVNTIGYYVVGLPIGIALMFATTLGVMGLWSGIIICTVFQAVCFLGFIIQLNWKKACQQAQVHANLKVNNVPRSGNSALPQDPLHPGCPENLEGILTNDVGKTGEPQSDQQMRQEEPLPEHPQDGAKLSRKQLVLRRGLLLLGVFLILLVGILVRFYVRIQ

human PMAT = biological target: T3, human PMAT (Homo sapiens, UniProt Q7RTT9); experiment: Inhibition of [14C]-metformin uptake in MDCK-PMAT cells; type: cell-based
T3 sequence (Q7RTT9 1-530): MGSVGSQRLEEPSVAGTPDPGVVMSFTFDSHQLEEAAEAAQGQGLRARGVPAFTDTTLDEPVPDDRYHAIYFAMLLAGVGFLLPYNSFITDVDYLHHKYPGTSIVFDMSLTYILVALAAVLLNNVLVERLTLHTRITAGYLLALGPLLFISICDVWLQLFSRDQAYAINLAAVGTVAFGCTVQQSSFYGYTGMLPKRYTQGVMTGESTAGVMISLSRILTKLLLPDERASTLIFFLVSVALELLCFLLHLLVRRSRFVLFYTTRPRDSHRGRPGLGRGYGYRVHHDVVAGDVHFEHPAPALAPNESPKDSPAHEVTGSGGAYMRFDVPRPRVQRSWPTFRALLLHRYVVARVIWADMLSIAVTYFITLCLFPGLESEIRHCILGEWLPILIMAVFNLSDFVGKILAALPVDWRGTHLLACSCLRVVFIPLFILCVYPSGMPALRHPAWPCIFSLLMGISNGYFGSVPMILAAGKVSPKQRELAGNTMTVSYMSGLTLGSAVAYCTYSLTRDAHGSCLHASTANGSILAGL

human OCT1 [1] = biological target: T4, human OCT1 (Homo sapiens, UniProt O15245); settings: OCT1-mediated, inhibitor at 10x Cmax,u
T4 sequence (O15245 1-554): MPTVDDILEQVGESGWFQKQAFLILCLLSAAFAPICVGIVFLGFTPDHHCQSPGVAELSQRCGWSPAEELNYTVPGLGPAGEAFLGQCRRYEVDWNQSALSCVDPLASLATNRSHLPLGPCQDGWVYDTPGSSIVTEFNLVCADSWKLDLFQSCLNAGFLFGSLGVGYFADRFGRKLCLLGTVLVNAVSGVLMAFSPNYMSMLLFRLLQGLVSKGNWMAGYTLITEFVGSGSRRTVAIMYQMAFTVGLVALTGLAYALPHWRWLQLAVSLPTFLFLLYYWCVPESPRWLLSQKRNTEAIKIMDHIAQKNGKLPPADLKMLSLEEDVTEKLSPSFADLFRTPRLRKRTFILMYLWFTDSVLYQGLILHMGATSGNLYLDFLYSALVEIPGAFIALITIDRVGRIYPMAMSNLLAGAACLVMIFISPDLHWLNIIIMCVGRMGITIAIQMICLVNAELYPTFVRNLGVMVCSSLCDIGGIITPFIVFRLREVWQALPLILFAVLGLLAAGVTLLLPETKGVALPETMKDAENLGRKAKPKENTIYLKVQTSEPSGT

human MATE2K [2] = biological target: T5, human MATE2K (Homo sapiens, UniProt Q86VL8); experiment: in vitro; settings: probe [14C]-metformin 10 µM
human OCT1 [3] = biological target: T4, human OCT1; experiment: cell-based
human OCT2 = biological target: T6, human OCT2 (Homo sapiens, UniProt O15244); experiment: Inhibition of [14C]-metformin uptake in HEK-OCT2 cells; type: cell-based; settings: for inhibition at 10 x Cmax,u: human, HEK293-Flp-In cells stably expressing human OCT2 (HEK-OCT2), probe [14C]-metformin 10 µM
T6 sequence (O15244 1-555): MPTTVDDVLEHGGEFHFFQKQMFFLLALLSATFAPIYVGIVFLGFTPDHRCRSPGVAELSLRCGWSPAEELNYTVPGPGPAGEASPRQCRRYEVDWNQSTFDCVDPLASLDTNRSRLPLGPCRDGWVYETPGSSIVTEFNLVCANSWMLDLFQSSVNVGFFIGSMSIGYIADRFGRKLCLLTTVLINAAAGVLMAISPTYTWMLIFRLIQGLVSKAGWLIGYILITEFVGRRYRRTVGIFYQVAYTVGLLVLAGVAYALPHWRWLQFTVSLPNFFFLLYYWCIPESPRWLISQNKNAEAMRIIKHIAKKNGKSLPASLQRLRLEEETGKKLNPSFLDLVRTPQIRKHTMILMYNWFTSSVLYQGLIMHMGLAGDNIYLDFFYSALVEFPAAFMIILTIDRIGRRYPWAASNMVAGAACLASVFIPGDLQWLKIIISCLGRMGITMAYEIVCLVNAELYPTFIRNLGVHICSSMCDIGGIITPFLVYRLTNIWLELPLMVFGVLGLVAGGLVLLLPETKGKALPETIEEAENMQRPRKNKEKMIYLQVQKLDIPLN

human MATE2K [4] = biological target: T5, human MATE2K; experiment: cell-based; settings: IC50, [14C]-metformin 10 μM uptake, HEK-MATE2K
[5] = type: in vivo, human
[6] = human plasma; cited from earlier work
[7] = metformin 850 mg oral alone
[8] = metformin alone; OGTT 75 g 2 hours after dosing; p>0.1 vs pre-metformin
clinical = settings: human, po, 850 mg

T5 sequence (Q86VL8 1-566 isoform Q86VL8-3): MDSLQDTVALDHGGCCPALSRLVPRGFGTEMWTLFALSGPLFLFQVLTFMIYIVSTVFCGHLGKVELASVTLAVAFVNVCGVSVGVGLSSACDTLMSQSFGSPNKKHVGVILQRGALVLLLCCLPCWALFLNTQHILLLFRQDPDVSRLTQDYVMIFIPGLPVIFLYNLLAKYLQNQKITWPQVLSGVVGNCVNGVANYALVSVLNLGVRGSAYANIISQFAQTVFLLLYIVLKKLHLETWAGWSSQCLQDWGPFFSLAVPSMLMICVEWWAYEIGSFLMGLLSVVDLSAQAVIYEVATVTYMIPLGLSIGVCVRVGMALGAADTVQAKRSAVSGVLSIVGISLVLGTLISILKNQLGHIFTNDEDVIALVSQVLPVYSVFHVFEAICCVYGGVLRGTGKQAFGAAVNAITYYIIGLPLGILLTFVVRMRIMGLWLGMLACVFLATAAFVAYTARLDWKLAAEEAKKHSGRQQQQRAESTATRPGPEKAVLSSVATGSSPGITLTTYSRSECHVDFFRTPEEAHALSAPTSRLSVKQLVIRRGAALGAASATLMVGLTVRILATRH

Structure (SMILES): Nc1nc(NC2CC2)c2ncn([C@H]3C=C[C@@H](CO)C3)c2n1 [abacavir]
inhibition at 10 x Cmax,u (human MATE1): ≥ 50%

Structure (SMILES): C=CCN1CC[C@]23c4c5ccc(O)c4O[C@H]2C(=O)CC[C@@]3(O)[C@H]1C5 [naloxone]
inhibition at 10 x Cmax,u (human OCT2): ≥ 50%

Structure (SMILES): CNC(=C[N+](=O)[O-])NCCSCc1csc(CN(C)C)n1 [nizatidine]
IC50 (human OCT2): > 115 µM
IC50 (human OCT3): 41.1 µM
metformin uptake (remaining) (human OCT3): > 50%
IC50 (human MATE1): 52.7 µM
IC50 (human PMAT): > 115 µM
half-life ([5]; human, plasma, oral): ~3 h
Cmax ([5]; human, plasma, po, 600 mg): 4200 ng/mL and 12.7 µM
calculated Cmax,u ([5]; nizatidine 600 mg oral, calculated with 35% protein binding): 2.7 ± 0.2 μg/mL and 8.2 μM
metformin uptake (remaining) (human OCT1 [1]): > 50%
protein binding [6]: 35%
inhibition at 10 x Cmax,u (human MATE2K [2]): ≥ 50%
IC50 (human OCT1 [3]): > 115 µM
IC50 (human MATE2K [4]): 7.8 µM and 7.81 µM

Structure (SMILES): CNC(=C[N+](=O)[O-])NCCSCc1ccc(CN(C)C)o1 [ranitidine]
IC50 (human OCT2): 15.7 µM
IC50 (human OCT3): 93.5 µM
metformin uptake (remaining) (human OCT3): > 50%
inhibition at 10 x Cmax,u (human MATE1): ≥ 50%
IC50 (human PMAT): > 214 µM
metformin uptake (remaining) (human OCT1 [1]): > 50%
inhibition at 10 x Cmax,u (human MATE2K [2]): ≥ 50%
IC50 (human OCT1 [3]): 26.8 µM
IC50 (human MATE2K [4]): 4.63 µM

Structure (SMILES): CN/C(=N/CCSCc1nc[nH]c1C)NC#N [cimetidine]
inhibition at 10 x Cmax,u (human MATE1): ≥ 50%
inhibition at 10 x Cmax,u (human MATE2K [2]): ≥ 50%

Structure (SMILES): CC(=O)OCC(CCn1cnc2cnc(N)nc21)COC(C)=O [famciclovir]
inhibition at 10 x Cmax,u (human MATE2K [2]): ≥ 50%

Structure (SMILES): CN(C)C(=N)N=C(N)N [Metformin, metformin]
CL/F [7]: 1360 ± 440 mL/min
V/F [7]: 577 ± 179 L
Amount in urine0–24 ([7]; 11 subjects): 437 ± 86 mg
glucose AUC after OGTT [8]: 3100 ± 121 mg·h/L
CL renal (clinical; plasma and urine): 736 ± 204 mL/min
AUC(0-inf) (clinical; plasma): 11400 ± 3300 ng·h/mL
AUC(0-t) (clinical; plasma): 11000 ± 3100 ng·h/mL
Cmax (clinical; plasma): 1810 ± 600 ng/mL
Tmax (clinical; plasma): 2.46 ± 0.66 h

Results, then the molecule that gave them:

IC50 (human OCT3): > 1.32 µM
metformin uptake (remaining) (human OCT3): > 50%
inhibition at 10 x Cmax,u (human MATE1): ≥ 50%
IC50 (human PMAT): > 1.32 µM
metformin uptake (remaining) (human OCT1 [1]): > 50%
inhibition at 10 x Cmax,u (human MATE2K [2]): ≥ 50%
IC50 (human OCT1 [3]): > 1.32 µM
Structure (SMILES): Cc1nccn1CC1CCc2c(c3ccccc3n2C)C1=O (stereo not drawn) [ondansetron]

inhibition at 10 x Cmax,u (human MATE1): ≥ 50%
inhibition at 10 x Cmax,u (human MATE2K [2]): ≥ 50%
Structure (SMILES): COc1cc(Cc2cnc(N)nc2N)cc(OC)c1OC [trimethoprim]

IC50 (human OCT2): > 160 µM
IC50 (human OCT3): > 160 µM
metformin uptake (remaining) (human OCT3): > 50%
IC50 (human MATE1): 19.9 µM
inhibition at 10 x Cmax,u (human MATE1): ≥ 50%
IC50 (human PMAT): > 160 µM
metformin uptake (remaining) (human OCT1 [1]): > 50%
inhibition at 10 x Cmax,u (human MATE2K [2]): ≥ 50%
IC50 (human OCT1 [3]): > 160 µM
IC50 (human MATE2K [4]): 4.74 µM
Structure (SMILES): CCn1cc(C(=O)O)c(=O)c2cc(F)c(N3CCNCC3)cc21 [norfloxacin]

IC50 (human OCT2): > 151 µM
IC50 (human OCT3): > 151 µM
IC50 (human MATE1): 5.12 µM
inhibition at 10 x Cmax,u (human MATE1): ≥ 50%
IC50 (human PMAT): > 151 µM
inhibition at 10 x Cmax,u (human MATE2K [2]): ≥ 50%
IC50 (human OCT1 [3]): 47 µM
IC50 (human MATE2K [4]): 1.19 µM
Structure (SMILES): COc1c(N2C[C@@H]3CCCN[C@@H]3C2)c(F)cc2c(=O)c(C(=O)O)cn(C3CC3)c12 [moxifloxacin]

inhibition at 10 x Cmax,u (human OCT2): ≥ 50%
inhibition at 10 x Cmax,u (human MATE1): ≥ 50%
inhibition at 10 x Cmax,u (human MATE2K [2]): ≥ 50%
Structure (SMILES): C=C[C@H]1C[N@@]2CC[C@H]1C[C@H]2[C@H](O)c1ccnc2ccc(OC)cc12 [quinine]

inhibition at 10 x Cmax,u (human OCT2): ≥ 50%
inhibition at 10 x Cmax,u (human MATE2K [2]): ≥ 50%
Structure (SMILES): CCN(CC)CCNC(=O)c1ccc(N)cc1 [procainamide]

inhibition at 10 x Cmax,u (human MATE1): ≥ 50%
Structure (SMILES): CC(C)/N=c1\cc2n(-c3ccc(Cl)cc3)c3ccccc3nc-2cc1Nc1ccc(Cl)cc1 [clofazimine]

Reference: publication PMC4792735 (Clinical pharmacokinetics, 2016)
